These results are taken from PMC3914206.

The target of experiment [1] is T1, panel of 442 kinases (Homo sapiens, UniProt P35968).
T1 construct: purchased KINOMEscan
The format is binding. The following applies: kinase VEGFR2; compound concentration 10 µM. The text has this:
(§1) We assessed the selectivity of members of this scaffold using the KINOMEscan methodology across a near comprehensive panel of 442 kinases [[18,27]].

Experiment [2] deals with T2, panel of 442 kinases (Homo sapiens, UniProt Q13976).
T2 construct: purchased KINOMEscan
T2 sequence (Q13976 1-671): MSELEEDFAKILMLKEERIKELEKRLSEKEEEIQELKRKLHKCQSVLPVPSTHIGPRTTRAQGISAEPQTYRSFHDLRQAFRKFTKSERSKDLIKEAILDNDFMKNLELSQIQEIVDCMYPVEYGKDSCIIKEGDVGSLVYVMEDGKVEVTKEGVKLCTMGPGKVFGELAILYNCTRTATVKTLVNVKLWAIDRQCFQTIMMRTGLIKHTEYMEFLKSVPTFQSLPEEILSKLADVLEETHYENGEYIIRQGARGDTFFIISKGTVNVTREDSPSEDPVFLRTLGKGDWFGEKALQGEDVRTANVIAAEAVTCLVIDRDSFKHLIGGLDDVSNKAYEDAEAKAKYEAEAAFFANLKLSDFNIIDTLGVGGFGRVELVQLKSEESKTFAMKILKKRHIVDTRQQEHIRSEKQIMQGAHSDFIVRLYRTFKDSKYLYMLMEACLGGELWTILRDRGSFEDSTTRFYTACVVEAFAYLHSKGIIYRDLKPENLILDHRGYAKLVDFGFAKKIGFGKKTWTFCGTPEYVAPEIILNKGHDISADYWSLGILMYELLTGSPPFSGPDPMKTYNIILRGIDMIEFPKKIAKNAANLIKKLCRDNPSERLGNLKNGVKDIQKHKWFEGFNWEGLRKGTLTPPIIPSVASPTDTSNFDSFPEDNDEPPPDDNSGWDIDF
The format is binding. The following applies: Compound Concentration 10 µM.
From the text: as §1

T1 sequence (P35968 20-1356): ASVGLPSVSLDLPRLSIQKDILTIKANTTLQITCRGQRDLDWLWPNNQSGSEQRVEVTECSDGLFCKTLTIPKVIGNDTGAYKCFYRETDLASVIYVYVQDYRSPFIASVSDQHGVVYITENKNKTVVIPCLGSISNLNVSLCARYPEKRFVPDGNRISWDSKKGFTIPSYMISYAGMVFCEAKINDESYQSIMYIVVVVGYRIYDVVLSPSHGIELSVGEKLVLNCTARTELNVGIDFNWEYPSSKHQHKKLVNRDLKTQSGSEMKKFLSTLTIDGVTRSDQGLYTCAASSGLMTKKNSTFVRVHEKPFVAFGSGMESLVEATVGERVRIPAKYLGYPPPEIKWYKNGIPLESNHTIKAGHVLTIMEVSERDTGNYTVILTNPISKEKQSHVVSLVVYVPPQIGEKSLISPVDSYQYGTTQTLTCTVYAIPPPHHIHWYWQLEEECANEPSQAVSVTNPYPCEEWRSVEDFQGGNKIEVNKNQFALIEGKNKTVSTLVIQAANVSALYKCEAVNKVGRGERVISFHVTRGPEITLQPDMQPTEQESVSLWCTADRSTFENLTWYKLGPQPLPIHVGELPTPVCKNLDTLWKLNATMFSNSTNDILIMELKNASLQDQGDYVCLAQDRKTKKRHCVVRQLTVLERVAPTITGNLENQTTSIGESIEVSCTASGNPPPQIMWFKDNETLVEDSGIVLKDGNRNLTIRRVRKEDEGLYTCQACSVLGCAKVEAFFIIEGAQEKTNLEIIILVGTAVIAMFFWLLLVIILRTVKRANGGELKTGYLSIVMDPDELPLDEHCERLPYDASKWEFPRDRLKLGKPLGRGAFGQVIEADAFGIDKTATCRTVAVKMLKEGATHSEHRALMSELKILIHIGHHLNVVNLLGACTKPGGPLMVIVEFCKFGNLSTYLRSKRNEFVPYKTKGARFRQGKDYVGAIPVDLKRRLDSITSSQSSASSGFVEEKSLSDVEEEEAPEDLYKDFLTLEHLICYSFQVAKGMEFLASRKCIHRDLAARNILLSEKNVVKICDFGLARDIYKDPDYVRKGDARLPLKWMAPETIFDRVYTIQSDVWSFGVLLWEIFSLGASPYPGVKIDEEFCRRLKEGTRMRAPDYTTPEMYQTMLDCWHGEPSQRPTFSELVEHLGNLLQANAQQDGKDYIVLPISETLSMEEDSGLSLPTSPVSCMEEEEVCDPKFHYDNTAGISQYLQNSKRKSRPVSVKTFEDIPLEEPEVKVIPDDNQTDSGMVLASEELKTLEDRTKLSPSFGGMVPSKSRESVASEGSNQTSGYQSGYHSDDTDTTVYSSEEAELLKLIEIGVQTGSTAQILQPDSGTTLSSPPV

With `COc1cc(C(=O)N2CCC(N3CCN(C)CC3)CC2)ccc1Nc1ncc2c(n1)N(C1CCCC1)c1ccccc1C(=O)N2C` [Compound 25, 11-cyclopentyl-2-((2-methoxy-4-(4-(4-methylpiperazin-1-yl)piperidine-1-carbonyl)phenyl)amino)-5-methyl-5H-benzo[e]pyrimido[5,4-b][1,4]diazepin-6(11H)-one], the “% Ctrl, VEGFR2” value in experiment [1] turned out to be 100 % Ctrl. For the same compound, the “KINOMEscan: PRKG1” value in experiment [2] was determined as 100.
Regarding `COc1cc(C(=O)N2CCC(N3CCN(C)CC3)CC2)ccc1Nc1ncc2c(n1)N1CCc3cccc(c31)C(=O)N2C` [Compound 24], in experiment [1], the “% Ctrl, VEGFR2” value stood at 100 % Ctrl.
`COc1cc(C(=O)N2CCC(N3CCN(C)CC3)CC2)ccc1Nc1ncc2c(n1)N(C)c1ccccc1C(=O)N2C` [15 (LRRK2-IN-1)]: the “% Ctrl, VEGFR2” value in experiment [1] is 84 % Ctrl. For the same compound, in experiment [2], the “KINOMEscan: PRKG1” value came out at 98.
The matching figures for `CCOc1cc(C(=O)N2CCC(N3CCN(C)CC3)CC2)ccc1Nc1ncc2c(n1)N(C1CCCC1)c1ccccc1C(=O)N2C` [Compound 26]: 100 % Ctrl and 100.
